Where “and” joins values, the source holds several entries; their conditions need not be identical. Identical values can stand only once.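 A five-concentration, 48-hour dose response in 96-well plates underlies each endpoint, interpolated linearly between surrounding concentrations. Here, GI50 denotes the concentration required for 50% inhibition of growth. TGI marks complete inhibition of growth.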
Assays:
Test in all cases: NCI tumour cell line growth inhibition, 48 h
[1] = test system: 786-0 renal
[2] = test system: A549 NSCLC
[3] = test system: EKVX NSCLC
[4] = test system: KM12 colon
[5] = test system: OVCAR-3 ovarian
[6] = test system: OVCAR-5 ovarian
[7] = test system: RPMI-8226 leukemia
[8] = test system: SW-620 colon
[9] = test system: U251 CNS
[10] = test system: SF-295 CNS

SMILES	TGI [1]	TGI [2]	TGI [3]	TGI [4]	TGI [5]	TGI [6]	TGI [7]	TGI [8]	TGI [9]	TGI [10]	GI50 [3]	GI50 [6]	GI50 [1]	GI50 [4]	GI50 [5]	GI50 [7]	GI50 [10]	GI50 [9]	GI50 [2]	GI50 [8]
O=C(Nc1cccc(Cl)c1)C(=O)C(C(=O)c1ccc2ccccc2c1)C1OC(=O)c2ccccc21 (stereo not given)	22.9 µM	> 100 µM	> 100 µM	60.3 µM	56.6 µM	59.6 µM	44 µM	80.9 µM	21.2 µM											
COc1ccc2c(c1OCC(=O)O)C(=O)C(CCC(=O)O)CC2 (stereo not given)	> 100 µM	> 100 µM	> 100 µM		> 100 µM		> 100 µM	> 100 µM	> 100 µM	> 100 µM										
CC1CC2CCCC(O)=C2C(=O)O1 (stereo not given)	> 100 µM	> 100 µM	> 100 µM	> 100 µM	> 100 µM	> 100 µM	> 100 µM	> 100 µM	> 100 µM	> 100 µM										
CCOC(=O)N[C@H]1CCc2cc(OC)c(OC)c(OC)c2-c2ccc(SC)c(=O)cc21	45.7 µM and > 100 µM	> 100 µM	> 100 µM			> 100 µM	> 100 µM	> 100 µM	61.3 µM and > 100 µM		< 0.01 µM	< 0.01 µM								
COC(=O)/C(C#N)=C1\N=NNN1c1ccc(OC)cc1	> 100 µM	> 100 µM	> 100 µM	> 100 µM	> 100 µM		> 100 µM	> 100 µM	> 100 µM	> 100 µM										
O=C1N=C2Sc3ccc4ccccc4c3N2C1=O	36.1 µM	41.2 µM	47.9 µM	> 100 µM	37.1 µM	> 100 µM	> 100 µM	49.1 µM	39.6 µM	36.5 µM										
CC1(C)COC(c2cccc3c2C(=O)c2cccc(Cl)c2-3)=N1	> 100 µM	> 100 µM	> 100 µM	> 100 µM	> 100 µM	> 100 µM	> 100 µM	> 100 µM	> 100 µM	> 100 µM										
CCCC(=O)Nc1cn(COC)c(C(=O)N2C[C@@H]3C[C@]34C2=CC(=O)c2[nH]cc(C)c24)n1	14.8 µM and 10.1 µM	50 µM and 30 µM	> 5 µM and 38.2 µM	> 5 µM and 24.5 µM	27.2 µM and 7.03 µM	50 µM and 9.52 µM	41.5 µM and 6.75 µM	50 µM and 47.7 µM	50 µM and 21.1 µM	50 µM and 15.8 µM	14.8 µM	3.3 µM	3.14 µM	10.5 µM	2.98 µM	1.87 µM	3.68 µM	4.93 µM		
O=C(CC1C(=O)Nc2ccccc2S1=O)Nc1cc(Cl)ccc1Cl (stereo not given)	> 100 µM	> 100 µM	> 100 µM		> 100 µM	> 100 µM	> 100 µM	> 100 µM	> 100 µM	> 100 µM										
CCOc1ccc(/C=C2\N=C(c3ccc([N+](=O)[O-])cc3)OC2=O)cc1	> 100 µM	> 100 µM	> 100 µM	> 100 µM	> 100 µM	> 100 µM	> 100 µM	> 100 µM	> 100 µM	> 100 µM										
O=[N+]([O-])c1ccc2occ3c2c1CCC3	> 100 µM	> 100 µM	> 100 µM	> 100 µM	> 100 µM	> 100 µM	> 100 µM	> 100 µM	> 100 µM	> 100 µM										
CNCCOC(=O)/C=C1\CC[C@H]2[C@@H]([C@@H](O)C(=O)[C@@H]3[C@]2(C)CC[C@H](O)[C@]3(C)C(=O)OC)[C@H]1C	0.681 µM	0.314 µM	0.539 µM	2.12 µM	0.49 µM	2.68 µM	2.65 µM	1.14 µM	1.17 µM	0.951 µM	0.229 µM	1.18 µM	0.226 µM	0.564 µM	0.228 µM	0.454 µM	0.301 µM	0.324 µM	0.165 µM	0.318 µM
NNC(=O)CNc1cccc(Br)c1	> 100 µM	> 100 µM	> 100 µM	> 100 µM	> 100 µM	> 100 µM	> 100 µM	> 100 µM	> 100 µM	> 100 µM										
CCCCCCCCCCCCCCCC(=O)OCCOCCOCCOCc1ccccc1	> 100 µM	> 100 µM	> 100 µM	> 100 µM	> 100 µM	> 100 µM		> 100 µM	> 100 µM	98.4 µM										
N#CC(C(=O)/C(=N\NC(N)=O)C(C#N)c1ccc(Cl)cc1)c1ccc(Cl)cc1 (stereo not given)	> 100 µM	> 100 µM	> 100 µM	> 100 µM	> 100 µM	> 100 µM	> 100 µM	> 100 µM	> 100 µM	> 100 µM										
N=c1c2c(-c3ccccc3)c(-c3ccccc3)n(Cc3ccccc3)c2ncn1C1CCC(O)CC1 (stereo not given)	17.3 µM	12.9 µM		11.1 µM	5.63 µM	22.4 µM	4.12 µM	12.9 µM	5.3 µM	1.45 µM		5.84 µM	2.12 µM	0.327 µM	0.488 µM	0.318 µM	0.0836 µM	0.15 µM	0.103 µM	0.0497 µM
Cc1nc(N)sc1N=Nc1ccccc1Br	69.5 µM	> 100 µM	76.3 µM	51.1 µM	> 79.9 µM	> 90.5 µM	> 100 µM	> 100 µM	52.6 µM	97.7 µM										
COc1c(O)c2c(=O)cc3c4c5c(cc(=O)c6c(O)c(OC)c(CC(C)O)c(c(c1CC(C)O)c24)c65)OCO3 (stereo not given)	11.1 µM	8.39 µM		4.09 µM	6.63 µM	9.13 µM	12 µM	8.65 µM	4.08 µM	6.09 µM										

SMILES	TGI [1]	TGI [2]	TGI [3]	TGI [4]	TGI [5]	TGI [6]	TGI [7]	TGI [8]	TGI [9]	TGI [10]	GI50 [3]	GI50 [6]	GI50 [1]	GI50 [4]	GI50 [5]	GI50 [7]	GI50 [10]	GI50 [9]	GI50 [2]	GI50 [8]
S=c1[nH]c(=S)c2cc3ccccc3nc2[nH]1	> 100 µM	> 100 µM	> 100 µM	> 100 µM	95.8 µM	> 100 µM	> 100 µM	> 100 µM	41.6 µM	> 100 µM	31 µM	> 100 µM	> 100 µM	29.5 µM	12.9 µM	7.96 µM	> 100 µM	5.98 µM	> 100 µM	26.8 µM
CCn1c(O)c(/C=N/NC(=O)C(C)c2ccc(CC(C)C)cc2)sc1=S (stereo not given)	> 40.9 µM	> 54.4 µM	> 46 µM	> 32.8 µM	3.97 µM	> 44.7 µM	4.83 µM	> 40.9 µM	> 38 µM	> 34.7 µM	0.596 µM	0.619 µM	0.606 µM	0.371 µM	0.272 µM	0.425 µM	0.337 µM	0.399 µM	0.472 µM	0.394 µM
COc1cc(Cl)cc(-c2nn(-c3cccc(NC(=O)c4ccc(N5CCOCC5)c(C(F)(F)F)c4)c3)cc2-c2ccncc2)c1	29.8 µM	> 100 µM		> 100 µM	> 100 µM	> 100 µM	> 100 µM	> 100 µM	> 100 µM	14.8 µM		32.5 µM	3.23 µM	5.38 µM	53.1 µM	1.5 µM	2.21 µM	5.03 µM	9.15 µM	29.8 µM
Nc1ncn([C@@H]2O[C@H](CO)[C@@H](O)[C@H]2O)c(=O)n1	13.8 µM	> 100 µM	> 100 µM		3.69 µM	> 100 µM	> 100 µM	> 100 µM		58.7 µM	8.49 µM	2.57 µM	0.687 µM		1.56 µM	0.669 µM	2.28 µM		1.03 µM	1.71 µM
NC1CCN(Cc2ccccc2)CC1	> 100 µM	> 100 µM		> 100 µM	> 100 µM	> 100 µM	> 100 µM	> 100 µM	> 100 µM	> 100 µM		> 100 µM	> 100 µM	> 100 µM	> 100 µM	> 100 µM	> 100 µM	> 100 µM	> 100 µM	> 100 µM
Cc1ccc2nc(/C(=C/c3ccc(/C=C(\NC(=O)c4ccccc4)c4nc5ccc(C)cc5[nH]4)c(C)c3)NC(=O)c3ccccc3)[nH]c2c1	60.4 µM	65.9 µM	> 100 µM	37.5 µM	22 µM	33.8 µM	80.9 µM	> 100 µM	60.2 µM											
C=CCCCCC1CCC2CCC(CCCCC=C)N12 (stereo not given)	26.9 µM	30 µM		29.6 µM	30.2 µM		41 µM	32.9 µM	34.6 µM	26.4 µM										
COC1C(OC(=S)Nc2ccccc2)c2ccccc2N1C(C)=O (stereo not given)	> 100 µM	> 100 µM	> 100 µM	> 100 µM	> 100 µM		> 100 µM	> 100 µM	> 100 µM	> 100 µM										
CCN1CCN(c2cc(C)c3cc(NC(=O)c4ccc(OC)c(OC)c4)ccc3n2)CC1	> 55.3 µM	> 100 µM		> 86.3 µM	20.1 µM	> 100 µM	29.4 µM	> 42.3 µM	> 100 µM	38.5 µM		15.7 µM	7.12 µM	3.48 µM	0.528 µM	2.68 µM	11.8 µM	> 50.5 µM	11.1 µM	4.21 µM
COc1cnc2c(c1)C(=O)c1c-2n(CCCNC2=NCCS2)c(=O)c2cc([N+](=O)[O-])ccc12	0.0925 µM		2.82 µM	3.13 µM	1.81 µM	3.59 µM		1.84 µM		0.265 µM	1.01 µM	1.04 µM	0.0235 µM	1.11 µM	0.137 µM		0.0132 µM			0.0139 µM
CC12CCC(=O)C[C@H]1CCC(OC=O)C2Br (stereo not given in full)	> 100 µM	> 100 µM		> 100 µM	> 100 µM	> 100 µM	> 100 µM	> 100 µM	> 100 µM	> 100 µM										
O=C1CCC2(c3ccc(Cl)cc3)Nc3cc(Cl)ccc3N12 (stereo not given)	21.8 µM	26.5 µM	29.1 µM	24.4 µM	22.4 µM		> 100 µM	19.6 µM	24.3 µM	21.4 µM										
C=CCC1(c2ccc(OC)cc2)C=CC(=O)CC1 (stereo not given)	> 100 µM	> 100 µM	> 100 µM	> 100 µM	> 100 µM	> 100 µM		> 100 µM	> 100 µM	> 100 µM										
O=C(Nc1cccc(C(F)(F)F)c1)c1ccc(NC2=C(Cl)C(=O)N(Cc3ccc(Cl)cc3Cl)C2=O)cc1	14.3 µM	92.4 µM	48.6 µM	31.4 µM	30.9 µM		5.08 µM	6.05 µM	19 µM	35 µM	20.3 µM		3.96 µM	14.6 µM	15.3 µM	2.29 µM	13 µM	5.82 µM	21.6 µM	2.12 µM
C/C(CC(=O)Nc1ccc(C)c(C)c1)=N\N(c1ccccc1)c1ccccc1	> 100 µM	> 100 µM	> 100 µM	> 100 µM	> 100 µM	> 100 µM	> 100 µM		30.5 µM	> 100 µM										
COc1cc(C(=O)N2CCN(C(=O)c3cc(OC)c(OC)c(OC)c3)C2=S)cc(OC)c1OC	26.8 µM	56.7 µM		39.7 µM	29.6 µM	57.7 µM	26.1 µM	46.5 µM	34.4 µM	43.7 µM		23.2 µM	11.4 µM	14.2 µM	15.2 µM		19 µM	16.3 µM	19.9 µM	20.3 µM
O=C(/C(=C/c1ccc(Cl)cc1)c1ccccc1)c1ccccc1	56.4 µM		72.4 µM	30.5 µM		42.3 µM	45.4 µM	31.6 µM	33.9 µM	39.7 µM										
CCOC(=O)c1ccc(/C(C)=N/NC(N)=S)cc1	> 100 µM	> 100 µM	> 100 µM		> 100 µM		> 100 µM	> 100 µM	> 100 µM	> 100 µM										
